Reference: ChEMBL document CHEMBL1127967, “Argatroban analogs: Synthesis, thrombin inhibitory activity and cell permeability of aminoheterocyclic guanidine surrogates” (Bioorg Med Chem Lett, 1994)

Assays:
[1] = pKa value of the compound; format: physicochemical
Prothrombin = Prothrombin (Homo sapiens, UniProt P00734); assay: Inhibitory activity against thrombin was measured by its ability to cleave the synthetic substrate S-2238(D-Phe-Pip-Arg-pNA); details: read-out: I50
Caco-2 = assay: compound was evaluated for their ability to cross a Caco-2-monolayer; format: functional, cell-based; details: Homo sapiens

| Structure (SMILES) | pKa [1] | IC50 (Prothrombin) [µM] | Permeability coefficient (Caco-2) [×10⁻⁶ cm/s] |
| --- | --- | --- | --- |
| CC1CCN(C(=O)[C@H](CCCNc2cccnn2)NS(=O)(=O)c2ccc3ccccc3c2)CC1 | 5.2 | 24 | 12.3 |
| CC1CCN(C(=O)[C@H](CCCNc2cnccn2)NS(=O)(=O)c2ccc3ccccc3c2)CC1 | 3.1 | > 40 | 14.2 |
| COc1ccc2ccc(S(=O)(=O)N[C@@H](CCCNc3ccccn3)C(=O)N3CCC(C)CC3)cc2c1 | 6.9 | 0.47 | 3 |
| CC1CNc2c(cccc2S(=O)(=O)NC(CCCNC(=N)N)C(=O)N2CC[C@@H](C)C[C@@H]2C(=O)O)C1 (single isomer, unassigned) [ARGATROBAN] | 14 | – | 0.3 |
| CC1CCN(C(=O)[C@H](CCCNc2ncccn2)NS(=O)(=O)c2ccc3ccccc3c2)CC1 | 3.5 | > 115 | 13.8 |
| CC1CCN(C(=O)[C@H](CCCNc2ccccn2)NS(=O)(=O)c2ccc3ccccc3c2)CC1 | 6.9 | 5.5 | – |
| COc1ccc2ccc(S(=O)(=O)N[C@@H](CCCNc3cccnn3)C(=O)N3CCC(C)CC3)cc2c1 | 5.2 | 2.3 | 12.1 |
| CC1CCN(C(=O)[C@H](CCCN=C(N)N)NS(=O)(=O)c2ccc3ccccc3c2)CC1 | 14 | 2.5 | 0.4 |
